From patent publication US9718854B2, “Selective glycosidase inhibitors and uses thereof” (priority 2011, dated 2017)
pEC50, pKi: −log10 of the molar value. Like-named read-outs stand apart in the source and are kept apart here.

Experiments:
O-GlcNAcase = O-GlcNAcase (Rattus norvegicus (Rat), UniProt Q8VIJ5); test: Cell-based ELISA of O-GlcNAcylated protein (RL-2 antibody) for cellular O-GlcNAcase inhibition
Source text: Assay for Determination of Cellular Activity for Compounds that Inhibit O-GlcNAcase Activity
Inhibition of O-GlcNAcase, which removes O-GlcNAc from cellular proteins, results in an increase in the level of O-GlcNAcylated protein in cells. An increase in O-GlcNAcylated protein can be measured by an antibody, such as RL-2, that binds to O-GlcNAcylated protein. The amount of O-GlcNAcylated protein:RL2 antibody interaction can be measured by enzyme linked immunosorbant assay (ELISA) procedures.
Compounds to be tested were dissolved in DMSO, either 2 or 10 mM stock solution, and then diluted with DMSO and water in a two-step process using a Tecan workstation. […] If desired, the total protein concentration of samples was determined using 20 μL of the sample using the BCA method. […]
The amount of O-GlcNAcylated protein, as detected by the ELISA assay, was plotted for each concentration of test compound using standard curve fitting algorithms for sigmoidal dose response curves. The values for a four parameter logistic curve fit of the data were determined, with the inflection point of the curve being the potency value for the test compound.

human O-GlcNAcase = human O-GlcNAcase (Homo sapiens (Human), UniProt O60502); test: biochemical; details: purified human O-GlcNAcase, 4-methylumbelliferyl N-acetyl-β-D-glucosaminide substrate, pH 7.0, Cheng-Prusoff; read-out: Fluorescence-based hOGA Ki
Method: Assay for Determination of KI Values for Inhibition of O-GlcNAcase Activity
Experimental Procedure for Kinetic Analyses:
Enzymatic reactions were carried out in a reaction containing 50 mM NaH2PO4, 100 mM NaCl and 0.1% BSA (pH 7.0) using 2 mM 4-Methylumbelliferyl N-acetyl-β-D-glucosaminide dihydrate (Sigma M2133) dissolved in ddH2O, as a substrate. The amount of purified human O-GlcNAcase enzyme used in the reaction was 0.7 nM. Test compound of varying concentrations was added to the enzyme prior to initiation of the reaction. The reaction was performed at room temperature in a 96-well plate and was initiated with the addition of substrate. […] The slope of product production was determined for each concentration of compound tested and plotted, using standard curve fitting algorithms for sigmoidal dose response curves. The values for a four parameter logistic curve fit of the data were determined.

O-GlcNAcase, sequence (Q8VIJ5 whole entry): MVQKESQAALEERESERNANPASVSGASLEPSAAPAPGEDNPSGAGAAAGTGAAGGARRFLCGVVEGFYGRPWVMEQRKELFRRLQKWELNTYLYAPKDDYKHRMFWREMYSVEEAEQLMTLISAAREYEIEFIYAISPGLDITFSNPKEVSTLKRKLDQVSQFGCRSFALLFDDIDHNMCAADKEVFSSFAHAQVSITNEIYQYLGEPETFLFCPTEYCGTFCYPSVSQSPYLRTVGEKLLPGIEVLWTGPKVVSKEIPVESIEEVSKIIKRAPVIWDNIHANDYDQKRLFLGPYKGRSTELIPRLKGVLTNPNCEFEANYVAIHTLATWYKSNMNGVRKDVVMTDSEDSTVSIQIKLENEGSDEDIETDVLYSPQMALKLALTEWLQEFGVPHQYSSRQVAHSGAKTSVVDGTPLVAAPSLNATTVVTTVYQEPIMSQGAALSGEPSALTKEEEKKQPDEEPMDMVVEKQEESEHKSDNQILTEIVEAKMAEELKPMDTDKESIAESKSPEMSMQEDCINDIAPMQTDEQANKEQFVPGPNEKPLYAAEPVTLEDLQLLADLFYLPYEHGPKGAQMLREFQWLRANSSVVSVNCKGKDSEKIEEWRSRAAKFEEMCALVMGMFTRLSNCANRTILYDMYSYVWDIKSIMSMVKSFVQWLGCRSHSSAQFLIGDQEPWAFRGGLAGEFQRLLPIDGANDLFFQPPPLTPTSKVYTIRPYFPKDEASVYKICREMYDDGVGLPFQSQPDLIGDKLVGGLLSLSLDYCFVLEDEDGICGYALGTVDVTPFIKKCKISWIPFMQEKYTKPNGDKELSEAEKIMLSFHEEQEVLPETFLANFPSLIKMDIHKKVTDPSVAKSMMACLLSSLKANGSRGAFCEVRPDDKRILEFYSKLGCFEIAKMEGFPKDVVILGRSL
human O-GlcNAcase, sequence (O60502 whole entry): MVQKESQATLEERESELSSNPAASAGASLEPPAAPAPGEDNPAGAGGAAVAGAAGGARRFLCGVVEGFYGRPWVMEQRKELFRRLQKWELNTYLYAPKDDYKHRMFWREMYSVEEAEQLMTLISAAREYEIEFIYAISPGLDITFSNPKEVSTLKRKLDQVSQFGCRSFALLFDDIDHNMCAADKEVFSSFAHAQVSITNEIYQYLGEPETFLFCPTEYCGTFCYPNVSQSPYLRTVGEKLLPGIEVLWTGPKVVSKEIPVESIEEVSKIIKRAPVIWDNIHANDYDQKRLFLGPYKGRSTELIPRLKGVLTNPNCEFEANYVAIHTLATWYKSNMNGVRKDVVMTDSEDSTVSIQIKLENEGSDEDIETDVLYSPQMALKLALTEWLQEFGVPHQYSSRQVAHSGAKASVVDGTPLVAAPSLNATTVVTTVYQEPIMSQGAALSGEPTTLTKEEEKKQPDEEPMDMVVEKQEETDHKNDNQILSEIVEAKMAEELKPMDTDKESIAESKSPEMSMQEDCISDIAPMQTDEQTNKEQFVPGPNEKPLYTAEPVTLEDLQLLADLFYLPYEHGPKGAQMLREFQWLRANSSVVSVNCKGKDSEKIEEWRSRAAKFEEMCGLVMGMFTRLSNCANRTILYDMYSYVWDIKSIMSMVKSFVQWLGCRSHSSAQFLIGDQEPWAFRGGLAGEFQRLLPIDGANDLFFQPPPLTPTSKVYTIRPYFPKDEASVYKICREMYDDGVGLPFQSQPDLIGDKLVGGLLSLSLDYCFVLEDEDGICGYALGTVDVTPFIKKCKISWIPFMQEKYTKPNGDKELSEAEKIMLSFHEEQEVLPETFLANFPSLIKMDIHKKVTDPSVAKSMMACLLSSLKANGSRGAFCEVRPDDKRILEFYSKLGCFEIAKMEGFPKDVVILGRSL

CNC1=N[C@@H]2[C@@H](O)[C@H](O)[C@@H](COC(=O)N(C)C)O[C@@H]2S1 [Example 9, ((3aR,5R,6S,7R,7aR)-6,7-dihydroxy-2-(methylamino)-5,6,7,7a-tetrahydro-3aH-pyrano[3,2-d]thiazol-5-yl)methyl dimethylcarbamate]
pEC50 (O-GlcNAcase; rat PC-12 cells, 24 h treatment, O-GlcNAcylated protein detected with RL-2 antibody, read-out: Cell-based ELISA EC50): 6.67

CNC1=N[C@@H]2[C@@H](O)[C@H](O)[C@@H](CNC3CCCC3)O[C@@H]2S1 [Example 37, (3aR,5R,6S,7R,7aR)-5-((cyclopentylamino)methyl)-2-(methylamino)-5,6,7,7a-tetrahydro-3aH-pyrano[3,2-d]thiazole-6,7-diol]
pEC50 (O-GlcNAcase): 8.43

CNC1=N[C@@H]2[C@@H](O)[C@H](O)[C@@H](CNCC#N)O[C@@H]2S1 [Example 53, 2-((((3aR,5R,6S,7R,7aR)-6,7-dihydroxy-2-(methylamino)-5,6,7,7a-tetrahydro-3aH-pyrano[3,2-d]thiazol-5-yl)methyl)amino)acetonitrile]
pKi (human O-GlcNAcase): 8.27
